Test results: the OligoGym collection
“And” between values parts separate entries of the source, which are not always exact repeats. Equal values may be shown once. These antisense oligonucleotides have a phosphorothioate backbone; sugars and methylation of C are not fully specified.
Note: test concentration or dose not given here.

Each sequence was assayed against VCAM1. Conditions: ASO.
AACATCTCCGTACCATGCCA showed a remaining target (mRNA or protein) (fraction of control) of 0.25. AACCCAGTGCTCCCTTTGCT gave a remaining target (mRNA or protein) (fraction of control) of 0.21. Work on AACCCTTATTTGTGTCCCACC yielded a remaining target (mRNA or protein) (fraction of control) of 0.09. In the case of AACTCCTCCAGTTCTCTCATC, the remaining target (mRNA or protein) (fraction of control) is reported as 0.12. ACCTGTGTGTGCCTGGGAGGG was tested, and the remaining target (mRNA or protein) (fraction of control) was 0.26. ACGACCATCTTCCC gave a remaining target (mRNA or protein) (fraction of control) of 0.51. CACGAGGCCACCACTCATCTC gave a remaining target (mRNA or protein) (fraction of control) of 0.05. CAGATCAGGGAACTCCTC gave a remaining target (mRNA or protein) (fraction of control) of 0.55. Work on CAGCCTGCCTTACTGTGGGC yielded a remaining target (mRNA or protein) (fraction of control) of 0.67. Sequence CATCTCGATTTCTGG has a remaining target (mRNA or protein) (fraction of control) of 0.47. CATCTTCCCAGGCAT showed a remaining target (mRNA or protein) (fraction of control) of 0.45. Work on CCACCACTCATCTCG yielded a remaining target (mRNA or protein) (fraction of control) of 0.26. Work on CCCAGGCATTTTAAG yielded a remaining target (mRNA or protein) (fraction of control) of 0.78. For CCCAGGCATTTTAAGTTGCTG, the remaining target (mRNA or protein) (fraction of control) was 0.33. In the case of CCCATTCACGAGGCCACC, the remaining target (mRNA or protein) (fraction of control) is reported as 0.11. Work on CCCGGCATCTTTACAAAACC yielded a remaining target (mRNA or protein) (fraction of control) of 0.45. Work on CCCTTATTTGTGTCCC yielded a remaining target (mRNA or protein) (fraction of control) of 0.37. For CCTCCAGTTCTCTC, the remaining target (mRNA or protein) (fraction of control) was 0.32. CCTGAAGCCAGTGAGG gave a remaining target (mRNA or protein) (fraction of control) of 0.61. CCTGAAGCCAGTGAGGCCCG showed a remaining target (mRNA or protein) (fraction of control) of 0.42. CCTGGGAGGGTATTC gave a remaining target (mRNA or protein) (fraction of control) of 0.39. CCTGTGTGTGCCTGGGAGGG was tested, and the remaining target (mRNA or protein) (fraction of control) was 0.88. For CGACCATCTTCCCAGGCATTT, the remaining target (mRNA or protein) (fraction of control) was 0.2. With CGAGGCCACCACTC the remaining target (mRNA or protein) (fraction of control) was 0.16. Sequence CGATGCAGATACCGCGGAGT has a remaining target (mRNA or protein) (fraction of control) of 0.37. CGTGATGAAGAAAATAGTGGTT showed a remaining target (mRNA or protein) (fraction of control) of 0.49. CTCTCATCTTGATGGC was tested, and the remaining target (mRNA or protein) (fraction of control) was 0.55. Work on CTGTGTGTCCTGTCTCCGCT yielded a remaining target (mRNA or protein) (fraction of control) of 0.27. In the case of CTTGAACAATTAATTCCACCT, the remaining target (mRNA or protein) (fraction of control) is reported as 0.37. With CTTTGACTTCTTGCTCACAGC the remaining target (mRNA or protein) (fraction of control) was 0.07. With GCAATCTTGCTATGGCATAA the remaining target (mRNA or protein) (fraction of control) was 0.48. Sequence GCCAGTGAGGCCCG has a remaining target (mRNA or protein) (fraction of control) of 0.35. Work on GCCTGGGAGGGTATTCAGCT yielded a remaining target (mRNA or protein) (fraction of control) of 0.58. GCCTGGGAGGGTATTCAGCTC was tested, and the remaining target (mRNA or protein) (fraction of control) was 0.3. GGCATTTTAAGTTGCTGTCG showed a remaining target (mRNA or protein) (fraction of control) of 0.34. For GGCCACATTGGGAAAGTTGC, the remaining target (mRNA or protein) (fraction of control) was 0.29. Work on GGTATTCAGCTCCTGAAG yielded a remaining target (mRNA or protein) (fraction of control) of 0.69. GGTTCCAAAACCCTT showed a remaining target (mRNA or protein) (fraction of control) of 0.42. In the case of GTCTTTGTTGTTTTCTCTTCC, the remaining target (mRNA or protein) (fraction of control) is reported as 0.41. With TGAACATATCAAGCATTAGC the remaining target (mRNA or protein) (fraction of control) was 0.53. TTACCATTGACATAAAGTGTT was tested, and the remaining target (mRNA or protein) (fraction of control) was 0.52. Sequence TTTAAGCAATCTTGCTATGGC has a remaining target (mRNA or protein) (fraction of control) of 0.81. With TTTGTGTCCCACCTG the remaining target (mRNA or protein) (fraction of control) was 0.1.

These sequences were tested against ICAM1. Conditions: ASO.
CCTGTCCCGGGATAGGTTCA showed a remaining target (mRNA or protein) (fraction of control) of 0.4. CGATGGGCAGTGGGAAAG gave a remaining target (mRNA or protein) (fraction of control) of 0.95. With CGGGGGCTGCTGGGAGC the remaining target (mRNA or protein) (fraction of control) was 0.76. CTATGGAGGGCCACTTC gave a remaining target (mRNA or protein) (fraction of control) of 0.39. CTCATCCAGCAGGCTCAGGG was tested, and the remaining target (mRNA or protein) (fraction of control) was 0.75. CTCTGAGTAGCAGAGG was tested, and the remaining target (mRNA or protein) (fraction of control) was 0.76. In the case of CTCTGAGTAGCAGAGGAGCTC, the remaining target (mRNA or protein) (fraction of control) is reported as 0.17. With CTGAGGTTGC the remaining target (mRNA or protein) (fraction of control) was 0.95. Work on GACACTCAATAAATAGCTGGT yielded a remaining target (mRNA or protein) (fraction of control) of 0.5. In the case of GAGGAGCTCAGCGTCGACTG, the remaining target (mRNA or protein) (fraction of control) is reported as 0.83 and ≥ 1. GAGGCTGAGGTGGGAGGA gave a remaining target (mRNA or protein) (fraction of control) of 0.98. Sequence GAGTAGCAGAGGAGC has a remaining target (mRNA or protein) (fraction of control) of 0.61. With GATGCTACACATGTC the remaining target (mRNA or protein) (fraction of control) was 0.58. In the case of GCCCATTGCAGGGCCAGGGC, the remaining target (mRNA or protein) (fraction of control) is reported as 0. GCGTCGACTGGGGCGCGTGAT was tested, and the remaining target (mRNA or protein) (fraction of control) was 0.95. Sequence GCTACACATGTCTATGGAGGG has a remaining target (mRNA or protein) (fraction of control) of 0.35. For GCTTTCCCGGAAA, the remaining target (mRNA or protein) (fraction of control) was 0.82. Work on GCTTTCCCGGAAACCTCGCGC yielded a remaining target (mRNA or protein) (fraction of control) of 0.48. Work on GGAAACCTCGCGC yielded a remaining target (mRNA or protein) (fraction of control) of 0.91. Sequence GGAGCCATAGCGAGGC has a remaining target (mRNA or protein) (fraction of control) of 0.35. Work on GGAGCTCAGCGTCGA yielded a remaining target (mRNA or protein) (fraction of control) of 0.85. GGCAGAAATGTATGTGGGTGG showed a remaining target (mRNA or protein) (fraction of control) of 0.68. GGCTGAGGTTG gave a remaining target (mRNA or protein) (fraction of control) of 0.9. Sequence GGGCCACTTCTTCTGTAA has a remaining target (mRNA or protein) (fraction of control) of 0.33. With GGGCGCGTGATCCTTATAGC the remaining target (mRNA or protein) (fraction of control) was 0.8. In the case of GGGGCGGTGCTGCTTTCCCGG, the remaining target (mRNA or protein) (fraction of control) is reported as at least 1. For GGGTTGAAGCCATTGCAGGG, the remaining target (mRNA or protein) (fraction of control) was 0.45. GGTTGCAACTCTGAG showed a remaining target (mRNA or protein) (fraction of control) of 0.36. In the case of TCTGAGTAGCAGAGGAGCTCA, the remaining target (mRNA or protein) (fraction of control) is reported as 0.3. In the case of TCTGAGTAGCAGAGGAGCTCAG, the remaining target (mRNA or protein) (fraction of control) is reported as 0.33. In the case of TGATCCTTTATAGCGCTAGCC, the remaining target (mRNA or protein) (fraction of control) is reported as 0.9. In the case of TGCATCCCCCAGGCCACCAT, the remaining target (mRNA or protein) (fraction of control) is reported as 0. With TGCCAGTCCACATAGTGTTT the remaining target (mRNA or protein) (fraction of control) was 0.25. TGCCCATCAGGGCAGTTTGA showed a remaining target (mRNA or protein) (fraction of control) of 0.4. TGCTTACCCTCCCACAGCAG showed a remaining target (mRNA or protein) (fraction of control) of 0.1. In the case of TGGGAGCCATAGCGAG, the remaining target (mRNA or protein) (fraction of control) is reported as 0.55. For TGGGAGCCATAGCGAGGC, the remaining target (mRNA or protein) (fraction of control) was 0.38. Work on TTGAGAAAGCTTTATTAACT yielded a remaining target (mRNA or protein) (fraction of control) of at least 1. For TTGGGACAATGTCTCAGCTT, the remaining target (mRNA or protein) (fraction of control) was 0.25.

What follows are sequences tested against TNF. Conditions: ASO.
In the case of AAACTTACCTACGACGTGGGC, the remaining target (mRNA or protein) (fraction of control) is reported as at least 1. Sequence AAAGCTTTAAGTCCCCCGCCC has a remaining target (mRNA or protein) (fraction of control) of 0.25. AATAATAAATAATAAATAAAT showed a remaining target (mRNA or protein) (fraction of control) of at least 1. With ACACTTACTGAGTGTGAGGGT the remaining target (mRNA or protein) (fraction of control) was at least 1. In the case of ACTTTCCCAGCAGGTATTTGG, the remaining target (mRNA or protein) (fraction of control) is reported as 0.88. Sequence AGAGCCACAATTCCCTTTCTA has a remaining target (mRNA or protein) (fraction of control) of 0.2. Sequence AGGCTCCTGTTTCCGGGGAGA has a remaining target (mRNA or protein) (fraction of control) of at least 1. Work on AGGGAAGGAAGGAAGGAAGGG yielded a remaining target (mRNA or protein) (fraction of control) of at least 1. With AGTGAGTTCCGAAAGCCCATT the remaining target (mRNA or protein) (fraction of control) was 0.94. Sequence ATTTGGAATTCCCAGAGTGGG has a remaining target (mRNA or protein) (fraction of control) of at least 1. Work on CAGTCACGGCTCCCGTGGG yielded a remaining target (mRNA or protein) (fraction of control) of 0.91. CAGTCTGGGAAGCTCTGAGGG was tested, and the remaining target (mRNA or protein) (fraction of control) was at least 1. CATTTCTTTTCCAAGCGAAC gave a remaining target (mRNA or protein) (fraction of control) of 0.94. In the case of CCCTTAGGTTTCCCAGCAAGC, the remaining target (mRNA or protein) (fraction of control) is reported as 0.38. With CCGTGCTCATGGTGTCCTTTC the remaining target (mRNA or protein) (fraction of control) was 0.51. CCTATTCCCTTTCCTCCCAAA showed a remaining target (mRNA or protein) (fraction of control) of 0.14. With CCTCGCTGAGTTCTGCCGGCT the remaining target (mRNA or protein) (fraction of control) was 0.99.
